From ChEMBL document CHEMBL1201862, “PubChem BioAssay data set” (2004)
The source made the active and inactive calls.

Key:
Paired box protein Pax-8 = Paired box protein Pax-8 (Homo sapiens, UniProt Q06710); test: PAX8 transcriptional activity inhibition in RMG-I – RMG-I cells, luciferase, cherry-pick, dose response (AID 687027); type: functional, cell-based;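 also: luciferase reporter driven by Pax8 target thyroperoxidase promoter measured by SteadyGlo luminescence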
[1] = general cell-killing toxicity readout – plate reader, dry powder samples, cytotoxicity control for PAX8 inhibitor project, dose response (AID 743021); type: functional, cell-based
[2] = tested on: Streptococcus sp. 'group A'; test: Streptococcus pyogenes SK(-)GAS viability under kanamycin – luminescence, BacTiterGlo, confirmation, counter-screen for streptokinase expression inhibitor project, dose response (AID 1900); type: functional, organism-based
[3] = target: Disintegrin and metalloproteinase domain-containing protein 17 (Homo sapiens, UniProt P78536); test: inhibition of ADAM17 substrate cleavage – biochemical, quenched FRET substrate, counter-screen for ADAM10 exosite inhibitor project, dose response (AID 743253)
Streptokinase A = target: T1, Streptokinase A (Streptococcus pyogenes serotype M1, UniProt P10520); test: viability-normalized secreted streptokinase activity reduction – plasminogen activation absorbance, OD405, dose response (AID 1914); type: functional, Streptococcus pyogenes M1 GAS;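 also: secreted streptokinase activity via plasminogen activation per viability signal from cell pellet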
T1 sequence (P10520 whole entry): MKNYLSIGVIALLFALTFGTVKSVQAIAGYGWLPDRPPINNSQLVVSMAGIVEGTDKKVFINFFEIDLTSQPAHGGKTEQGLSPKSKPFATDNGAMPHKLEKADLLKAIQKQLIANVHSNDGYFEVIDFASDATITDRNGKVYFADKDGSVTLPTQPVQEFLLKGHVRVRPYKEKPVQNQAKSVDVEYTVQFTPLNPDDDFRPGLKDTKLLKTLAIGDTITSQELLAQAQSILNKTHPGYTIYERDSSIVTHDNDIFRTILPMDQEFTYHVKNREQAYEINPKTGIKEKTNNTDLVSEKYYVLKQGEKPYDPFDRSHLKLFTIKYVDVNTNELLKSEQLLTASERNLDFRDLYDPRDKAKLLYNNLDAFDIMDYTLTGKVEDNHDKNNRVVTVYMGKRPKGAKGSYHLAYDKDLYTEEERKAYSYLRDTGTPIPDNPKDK

Streptococcus = test: GAS UMAA2166 growth inhibition – luminescence, BacTiterGlo, counter-screen for streptokinase expression inhibitor project, dose response (AID 1915); type: functional, organism-based;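 also: potency for reduction of bacterial viability or growth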
cells [4] = type: functional, cell-based
[5] = target: T2, Trace amine-associated receptor 1 (Homo sapiens, UniProt Q96RJ0); test: Fluorescence-based cell-based high throughput dose response assay to identify agonists of the human trace amine associated receptor 1 (TAAR1).; type: functional
T2 sequence (Q96RJ0 whole entry): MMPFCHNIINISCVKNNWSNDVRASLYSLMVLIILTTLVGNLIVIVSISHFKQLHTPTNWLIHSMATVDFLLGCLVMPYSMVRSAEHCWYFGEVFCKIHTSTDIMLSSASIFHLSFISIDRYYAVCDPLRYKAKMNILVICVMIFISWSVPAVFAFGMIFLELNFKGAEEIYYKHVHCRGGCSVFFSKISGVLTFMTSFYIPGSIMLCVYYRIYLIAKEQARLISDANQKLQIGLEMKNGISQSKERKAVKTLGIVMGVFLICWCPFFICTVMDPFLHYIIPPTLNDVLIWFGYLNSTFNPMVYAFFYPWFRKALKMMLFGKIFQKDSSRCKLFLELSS

[6] = target: T2, Trace amine-associated receptor 1; test: Counterscreen for agonists of the human trace amine associated receptor 1 (hTAAR1): Fluorescence-based cell-based high throughput dose response assay to identify hTAAR1 agonist that also desensitize TAAR1 receptor response.; type: functional
cells [7] = type: functional, cell-based; remark: listed apart in the source
[8] = toxicity toward HepG2 liver cells – cell-based, plate reader, cherry-pick, antagonist series, cytotoxicity control, dose response (AID 743416); type: functional
[9] = A549 cell cytotoxicity, dose response, cytotoxicity control, plate reader, cherry-pick, antagonist series (AID 743412); type: functional, cell-based
[10] = blockers of bursicon-stimulated LGR2 cAMP reporter – cell-based, HEK293, CRE-luciferase reporter, cherry pick, set 2, dose response (AID 743343); type: functional;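 also: transfected cells were stimulated with diluted bursicon conditioned medium after compound addition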
cells [11] = test: cells
[12] = target: T3, Oxysterols receptor LXR-beta (Homo sapiens, UniProt P55055); type: functional, cell-based;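 also: Cell-based luminescence dose-response assay of agonist activity at LXR, run as a confirmatory counterscreen to a daf-12 agonist screen; HEK293 cells with Gal4-LXR fusion and GAL4-driven luciferase reporter; agonist potency from rising luciferase signal of a Gal4-LXR reporter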
T3 sequence (P55055 whole entry): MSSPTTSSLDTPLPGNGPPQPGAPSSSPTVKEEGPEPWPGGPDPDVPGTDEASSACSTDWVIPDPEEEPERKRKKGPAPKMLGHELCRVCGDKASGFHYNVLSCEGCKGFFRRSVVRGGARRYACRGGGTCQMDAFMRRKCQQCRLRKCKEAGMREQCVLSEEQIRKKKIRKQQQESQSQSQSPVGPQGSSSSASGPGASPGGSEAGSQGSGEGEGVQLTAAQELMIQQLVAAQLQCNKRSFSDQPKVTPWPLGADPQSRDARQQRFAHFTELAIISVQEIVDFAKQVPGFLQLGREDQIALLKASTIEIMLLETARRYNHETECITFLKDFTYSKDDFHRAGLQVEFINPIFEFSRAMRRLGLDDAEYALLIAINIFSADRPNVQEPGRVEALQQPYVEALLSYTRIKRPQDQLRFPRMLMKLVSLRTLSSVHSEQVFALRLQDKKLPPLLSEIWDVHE

[13] = viability loss in HEK293 cells – cell-based, plate reader, cherry-picked samples, cytotoxicity control, dose response (AID 743446); type: functional
[14] = blockade of melanocortin 4 receptor signaling – cell-based, plate reader, cherry pick, counter-screen for LGR2 antagonist project, dose response (AID 743444); type: functional;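 also: transfected HEK 293 cells stimulated with alpha-MSH peptide; potency of inhibitors of the alpha-MSH evoked signal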
Nonstructural protein 1 = Nonstructural protein 1 (Influenza A virus, UniProt Q194T2); type: functional, Influenza A virus (A/California/07/2009(H1N1))
INS1 = test: INS-1E survival protection against cytokine death – cell-based, luminescence, retest, dose response (AID 449756); type: functional; conditions: Rattus norvegicus;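 also: cell death triggered by IL-1 beta plus TNF-alpha plus IFN-gamma mixture; protective hits raise ATP signal compared with cytokine alone wells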

Disintegrin and metalloproteinase domain-containing protein 17, sequence (P78536 whole entry, the tested form may be a part): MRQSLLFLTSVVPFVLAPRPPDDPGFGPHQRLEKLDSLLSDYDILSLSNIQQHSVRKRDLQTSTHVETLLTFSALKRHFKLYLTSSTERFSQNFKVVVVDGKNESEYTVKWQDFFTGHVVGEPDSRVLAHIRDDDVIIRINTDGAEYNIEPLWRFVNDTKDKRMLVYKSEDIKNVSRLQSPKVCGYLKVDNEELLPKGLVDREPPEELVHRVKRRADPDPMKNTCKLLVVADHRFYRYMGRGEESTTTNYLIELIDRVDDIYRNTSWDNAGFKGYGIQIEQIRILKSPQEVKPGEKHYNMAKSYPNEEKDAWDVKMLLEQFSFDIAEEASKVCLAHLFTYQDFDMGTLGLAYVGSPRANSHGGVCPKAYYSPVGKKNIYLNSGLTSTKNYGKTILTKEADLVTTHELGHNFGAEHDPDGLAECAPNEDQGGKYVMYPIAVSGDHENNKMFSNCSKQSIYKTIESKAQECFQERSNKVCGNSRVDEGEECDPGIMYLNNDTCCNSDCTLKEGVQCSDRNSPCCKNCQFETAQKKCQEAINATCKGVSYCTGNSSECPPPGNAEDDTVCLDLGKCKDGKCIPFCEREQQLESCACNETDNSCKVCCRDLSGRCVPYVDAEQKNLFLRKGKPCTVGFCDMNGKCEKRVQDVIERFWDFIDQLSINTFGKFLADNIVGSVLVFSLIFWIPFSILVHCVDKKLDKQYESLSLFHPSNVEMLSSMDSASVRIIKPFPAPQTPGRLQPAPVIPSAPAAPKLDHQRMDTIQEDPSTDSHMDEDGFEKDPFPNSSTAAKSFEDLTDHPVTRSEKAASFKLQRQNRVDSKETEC
Nonstructural protein 1, sequence (Q194T2 whole entry): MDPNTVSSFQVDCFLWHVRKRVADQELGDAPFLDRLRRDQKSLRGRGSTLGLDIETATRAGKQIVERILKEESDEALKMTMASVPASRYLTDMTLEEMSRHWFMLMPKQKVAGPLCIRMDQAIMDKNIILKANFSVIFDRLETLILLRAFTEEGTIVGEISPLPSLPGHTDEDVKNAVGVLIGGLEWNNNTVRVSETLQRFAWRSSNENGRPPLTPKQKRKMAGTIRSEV
Paired box protein Pax-8, sequence (Q06710 whole entry): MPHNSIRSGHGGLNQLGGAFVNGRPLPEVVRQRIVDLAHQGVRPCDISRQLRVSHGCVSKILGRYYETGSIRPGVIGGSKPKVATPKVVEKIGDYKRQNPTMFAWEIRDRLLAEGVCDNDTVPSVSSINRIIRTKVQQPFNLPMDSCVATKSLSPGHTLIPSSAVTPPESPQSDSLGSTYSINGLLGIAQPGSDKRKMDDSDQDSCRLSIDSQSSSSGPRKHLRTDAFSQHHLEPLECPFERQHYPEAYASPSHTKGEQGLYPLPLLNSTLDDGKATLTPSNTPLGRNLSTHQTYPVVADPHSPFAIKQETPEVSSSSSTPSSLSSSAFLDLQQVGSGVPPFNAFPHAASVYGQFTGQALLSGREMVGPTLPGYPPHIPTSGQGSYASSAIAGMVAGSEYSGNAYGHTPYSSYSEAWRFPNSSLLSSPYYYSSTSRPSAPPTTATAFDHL

## O=C(Nc1ccc(C(F)(F)F)cc1)N1C[C@@H]2N[C@H](C1)[C@H]2c1ccc(-c2cccc(F)c2)cc1
Paired box protein Pax-8
  AC50: 13.2 µM (active)
[1]
  AC50: 27.9 µM (active)

## CCc1ccc(NC(=O)c2ccc(F)c(S(=O)(=O)NCC3COc4ccccc4O3)c2)cc1 (stereo not drawn)
[2]
  EC50: 10.7 µM (active)
[3]
  IC50: > 69.5 µM (inactive)
Streptokinase A
  EC50: 35.2 µM (active)
Streptococcus
  EC50: 18.4 µM (active)

## Cc1ccn2c(CNCC3OCCc4ccccc43)c(C(=O)N3CCCCCC3)nc2c1 (stereo not drawn)
Cells [4]
  EC50: > 29.9 µM (inactive)
[5]
  EC50: 4.98 µM (active)
[6]
  IC50: 9.37 µM (active)
Cells [7]
  IC50: > 29.9 µM (inactive)

## NC(=O)c1ccsc1NC(=O)c1ccc2c(c1)CCCC2
[8]
  AC50: 42.4 µM (active)
[9]
  AC50: 14.1 µM (active)
[10]
  AC50: 9.99 µM (active)
Cells [11]
  EC50: > 67.5 µM (inactive)
[12]
  EC50: > 67.5 µM (inactive)
[13]
  AC50: 31.4 µM (active)
[14]
  AC50: 15.2 µM (active)

## COc1cc(N/N=C/c2ccccc2O)ncn1
Cells [4]
  EC50: > 29.9 µM (inactive)
Nonstructural protein 1
  IC50: 5.73 µM (active)
INS1
  AC50: 3.67 µM (active)
[5]
  EC50: > 29.9 µM (inactive)
[6]
  IC50: 6.63 µM (active)
Cells [7]
  IC50: > 29.9 µM (inactive)
